Drawing on patent publication US9340590B2 (priority 2011, dated 2016), this text covers IC50 for 8 compounds.

Common to all, as to assay: cell-based
The target in one experiment is hNav1.7 (Homo sapiens, UniProt Q15858). It counts as cell-based. Conditions: IonWorks Quattro, use-dependent block, hNav1.7; read-out: IWQ Use Nav1.7.
The next experiment addresses hNav1.5 (Homo sapiens, UniProt Q14524). Conditions: IonWorks Quattro, use-dependent block, hNav1.5; read-out: IWQ Use Nav1.5. (In general: Patch clamp records ionic current or voltage across a cell membrane.)
Another experiment deals with hNav1.3 (Homo sapiens, UniProt Q9NY46). The note with it: IonWorks Quattro, use-dependent block, hNav1.3; read-out: IWQ Use Nav1.3.

hNav1.7, sequence (Q15858 whole entry, looked up): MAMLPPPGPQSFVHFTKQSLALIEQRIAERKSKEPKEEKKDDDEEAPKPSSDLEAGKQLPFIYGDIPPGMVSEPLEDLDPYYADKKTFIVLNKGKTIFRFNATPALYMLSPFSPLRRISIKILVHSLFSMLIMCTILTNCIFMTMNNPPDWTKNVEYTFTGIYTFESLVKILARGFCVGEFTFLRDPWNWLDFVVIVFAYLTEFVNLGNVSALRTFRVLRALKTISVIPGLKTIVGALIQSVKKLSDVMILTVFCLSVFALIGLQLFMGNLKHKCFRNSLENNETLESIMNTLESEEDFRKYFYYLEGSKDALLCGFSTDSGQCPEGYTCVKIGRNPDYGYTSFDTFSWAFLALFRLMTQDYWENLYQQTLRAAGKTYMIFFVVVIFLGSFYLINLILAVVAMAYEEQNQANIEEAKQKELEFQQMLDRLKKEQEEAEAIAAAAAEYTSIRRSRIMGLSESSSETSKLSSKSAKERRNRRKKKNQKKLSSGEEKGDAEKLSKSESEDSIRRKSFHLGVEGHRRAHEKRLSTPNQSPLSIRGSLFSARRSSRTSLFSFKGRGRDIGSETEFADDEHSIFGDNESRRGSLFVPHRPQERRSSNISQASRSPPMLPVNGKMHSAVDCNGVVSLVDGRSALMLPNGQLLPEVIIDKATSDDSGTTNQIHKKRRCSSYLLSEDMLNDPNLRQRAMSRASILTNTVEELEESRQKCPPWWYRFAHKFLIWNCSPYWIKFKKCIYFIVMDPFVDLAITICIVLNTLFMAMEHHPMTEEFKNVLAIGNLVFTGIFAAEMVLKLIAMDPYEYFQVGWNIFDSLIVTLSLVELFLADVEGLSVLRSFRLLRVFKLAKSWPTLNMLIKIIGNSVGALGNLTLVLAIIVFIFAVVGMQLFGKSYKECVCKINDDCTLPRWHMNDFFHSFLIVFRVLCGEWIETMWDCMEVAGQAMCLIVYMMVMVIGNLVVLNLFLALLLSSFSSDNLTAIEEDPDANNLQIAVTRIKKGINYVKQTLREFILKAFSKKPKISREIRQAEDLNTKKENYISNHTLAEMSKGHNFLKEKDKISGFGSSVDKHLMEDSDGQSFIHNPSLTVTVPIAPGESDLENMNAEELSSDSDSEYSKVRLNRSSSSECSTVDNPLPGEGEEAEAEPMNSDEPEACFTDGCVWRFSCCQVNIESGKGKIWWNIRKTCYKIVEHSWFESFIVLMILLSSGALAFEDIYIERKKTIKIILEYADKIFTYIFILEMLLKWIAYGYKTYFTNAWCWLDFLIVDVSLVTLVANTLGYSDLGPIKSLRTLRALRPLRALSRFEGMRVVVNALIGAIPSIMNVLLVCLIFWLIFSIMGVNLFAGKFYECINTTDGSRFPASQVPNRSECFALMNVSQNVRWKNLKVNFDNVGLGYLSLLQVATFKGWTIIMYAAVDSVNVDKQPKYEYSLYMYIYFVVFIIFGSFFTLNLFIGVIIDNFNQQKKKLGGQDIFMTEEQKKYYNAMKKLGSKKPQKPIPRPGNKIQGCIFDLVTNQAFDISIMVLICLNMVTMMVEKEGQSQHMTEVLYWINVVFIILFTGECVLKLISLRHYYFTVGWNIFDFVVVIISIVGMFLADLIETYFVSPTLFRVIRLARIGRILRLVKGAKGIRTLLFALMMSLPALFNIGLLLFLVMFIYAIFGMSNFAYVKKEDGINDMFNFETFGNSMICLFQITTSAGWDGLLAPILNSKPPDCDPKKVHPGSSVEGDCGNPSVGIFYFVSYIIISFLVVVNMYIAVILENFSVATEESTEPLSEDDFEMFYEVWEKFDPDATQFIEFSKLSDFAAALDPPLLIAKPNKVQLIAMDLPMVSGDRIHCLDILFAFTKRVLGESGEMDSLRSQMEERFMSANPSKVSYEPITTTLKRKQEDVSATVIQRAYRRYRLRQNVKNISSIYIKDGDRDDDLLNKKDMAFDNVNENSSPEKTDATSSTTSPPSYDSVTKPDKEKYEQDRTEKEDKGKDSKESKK
hNav1.5, sequence (Q14524 whole entry, looked up): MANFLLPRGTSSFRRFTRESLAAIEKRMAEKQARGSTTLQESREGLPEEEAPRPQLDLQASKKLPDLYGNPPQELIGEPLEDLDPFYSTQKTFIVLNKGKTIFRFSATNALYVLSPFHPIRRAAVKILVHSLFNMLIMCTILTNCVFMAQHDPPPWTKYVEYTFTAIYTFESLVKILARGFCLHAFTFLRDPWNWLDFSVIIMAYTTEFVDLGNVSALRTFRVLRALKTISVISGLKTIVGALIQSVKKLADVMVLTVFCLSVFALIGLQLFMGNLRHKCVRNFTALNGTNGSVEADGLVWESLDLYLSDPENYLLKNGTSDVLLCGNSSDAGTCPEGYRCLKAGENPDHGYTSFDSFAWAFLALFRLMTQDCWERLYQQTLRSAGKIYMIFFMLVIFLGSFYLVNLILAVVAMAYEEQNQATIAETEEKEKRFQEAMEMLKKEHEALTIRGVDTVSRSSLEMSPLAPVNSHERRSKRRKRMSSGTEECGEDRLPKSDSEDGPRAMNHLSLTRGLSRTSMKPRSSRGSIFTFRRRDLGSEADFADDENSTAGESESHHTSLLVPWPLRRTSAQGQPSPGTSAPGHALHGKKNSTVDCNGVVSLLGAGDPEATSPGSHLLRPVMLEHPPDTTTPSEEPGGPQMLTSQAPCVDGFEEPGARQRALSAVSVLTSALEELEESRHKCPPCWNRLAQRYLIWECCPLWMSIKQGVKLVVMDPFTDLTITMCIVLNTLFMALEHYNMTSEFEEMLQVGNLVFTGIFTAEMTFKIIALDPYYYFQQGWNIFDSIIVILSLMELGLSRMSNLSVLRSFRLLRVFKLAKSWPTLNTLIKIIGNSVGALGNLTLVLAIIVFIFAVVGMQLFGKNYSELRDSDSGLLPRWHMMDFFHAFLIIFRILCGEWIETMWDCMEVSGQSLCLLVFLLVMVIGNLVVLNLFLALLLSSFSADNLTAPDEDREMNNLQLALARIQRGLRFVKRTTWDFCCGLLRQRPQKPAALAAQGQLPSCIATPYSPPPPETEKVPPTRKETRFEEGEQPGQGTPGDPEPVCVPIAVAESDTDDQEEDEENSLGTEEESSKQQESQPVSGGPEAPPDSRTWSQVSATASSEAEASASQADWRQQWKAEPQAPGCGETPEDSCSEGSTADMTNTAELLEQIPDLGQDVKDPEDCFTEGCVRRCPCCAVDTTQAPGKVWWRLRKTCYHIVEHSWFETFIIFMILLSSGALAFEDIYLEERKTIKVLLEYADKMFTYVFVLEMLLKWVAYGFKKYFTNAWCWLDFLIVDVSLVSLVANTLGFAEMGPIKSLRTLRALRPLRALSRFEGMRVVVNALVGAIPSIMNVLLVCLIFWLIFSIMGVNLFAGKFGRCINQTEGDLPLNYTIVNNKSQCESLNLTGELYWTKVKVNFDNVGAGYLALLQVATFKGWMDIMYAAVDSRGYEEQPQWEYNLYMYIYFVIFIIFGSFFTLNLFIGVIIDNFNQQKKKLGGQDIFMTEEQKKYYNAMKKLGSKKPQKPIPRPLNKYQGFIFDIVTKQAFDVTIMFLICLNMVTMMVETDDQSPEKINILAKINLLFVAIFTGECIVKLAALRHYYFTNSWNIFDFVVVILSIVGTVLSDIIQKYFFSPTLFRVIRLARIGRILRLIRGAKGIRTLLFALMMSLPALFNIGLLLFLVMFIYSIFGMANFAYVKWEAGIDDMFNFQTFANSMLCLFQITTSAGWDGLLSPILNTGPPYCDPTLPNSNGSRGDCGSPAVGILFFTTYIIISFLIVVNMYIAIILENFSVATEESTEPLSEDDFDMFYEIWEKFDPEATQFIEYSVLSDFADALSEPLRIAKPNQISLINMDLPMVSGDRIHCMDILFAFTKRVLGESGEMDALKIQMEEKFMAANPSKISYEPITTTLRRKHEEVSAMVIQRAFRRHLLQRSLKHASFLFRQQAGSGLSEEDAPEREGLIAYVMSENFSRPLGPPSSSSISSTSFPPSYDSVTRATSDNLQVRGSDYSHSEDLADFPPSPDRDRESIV

With `CC[C@H](C)[C@@H]1NC(=O)[C@@H]2CSSC[C@@H]3NC(=O)[C@H](C(C)C)NC(=O)[C@H](CC(C)C)NC(=O)[C@H](CC(N)=O)NC(=O)[C@@H]4CCCN4C(=O)[C@H](CCCNC(=N)N)NC(=O)[C@H](CSSC[C@H](NC(=O)[C@@H](N)CC(=O)O)C(=O)N[C@@H](CC(C)C)C(=O)NCC(=O)N[C@@H](C)C(=O)N[C@@H](Cc4ccccc4)C(=O)N[C@@H](CCCNC(=N)N)C(=O)N[C@@H](CCCCN)C(=O)N2)NC(=O)[C@H](CSSC[C@@H](C(=O)N[C@@H](CCCCN)C(=O)N[C@@H](Cc2ccc(O)cc2)C(=O)N[C@H](C(=O)N[C@@H](Cc2ccccc2)C(=O)O)C(C)C)NC(=O)[C@H](Cc2c[nH]c4ccccc24)NC(=O)[C@H](CCCNC(=N)N)NC(=O)[C@H](Cc2c[nH]cn2)NC(=O)[C@H]([C@@H](C)O)NC(=O)[C@H](CCCNC(=N)N)NC(=O)[C@H](CO)NC3=O)NC(=O)[C@H](CCCCN)NC(=O)[C@H](CC(=O)O)NC(=O)CNC(=O)[C@H](CC(=O)O)NC(=O)[C@@H]2CCCN2C1=O` [compound 840], the IC50 at hNav1.7 was over 5 µM; at hNav1.5, over 5 µM; on hNav1.3 it was 1.5 µM.

Consider `CC[C@H](C)[C@@H]1NC(=O)[C@@H]2CSSC[C@@H]3NC(=O)[C@H](C(C)C)NC(=O)[C@H](CC(C)C)NC(=O)[C@H](CC(N)=O)NC(=O)[C@@H]4CCCN4C(=O)[C@H](CCCNC(=N)N)NC(=O)[C@H](CSSC[C@H](NC(=O)[C@@H](N)CC(=O)O)C(=O)N[C@@H](CC(C)C)C(=O)NCC(=O)N[C@@H](C)C(=O)N[C@@H](Cc4ccccc4)C(=O)N[C@@H](CCCNC(=N)N)C(=O)N[C@@H](CCCCN)C(=O)N2)NC(=O)[C@H](CSSC[C@@H](C(=O)N[C@@H](CCCCN)C(=O)N[C@@H](Cc2ccc(O)cc2)C(=O)N[C@H](C(=O)N[C@@H](Cc2ccccc2)C(=O)O)C(C)C)NC(=O)[C@H](Cc2c[nH]c4ccccc24)NC(=O)[C@H](CCCNC(=N)N)NC(=O)[C@H](Cc2c[nH]cn2)NC(=O)[C@H]([C@@H](C)O)NC(=O)[C@H](CCCNC(=N)N)NC(=O)[C@H](CO)NC3=O)NC(=O)[C@H](CCCCN)NC(=O)[C@H](CC(=O)O)NC(=O)[C@H](Cc2c[nH]cn2)NC(=O)[C@H](CC(=O)O)NC(=O)[C@@H]2CCCN2C1=O` [compound 841], for which the IC50 on hNav1.7, on hNav1.5 and at hNav1.3 was over 5 µM throughout.

As to `CC[C@H](C)[C@@H]1NC(=O)[C@H](CC(=O)O)NC(=O)[C@@H]2CCCN2C(=O)[C@H]([C@@H](C)CC)NC(=O)[C@@H]2CSSC[C@@H]3NC(=O)[C@H](C(C)C)NC(=O)[C@H](CC(C)C)NC(=O)[C@H](CC(N)=O)NC(=O)[C@@H]4CCCN4C(=O)[C@H](CCCNC(=N)N)NC(=O)[C@H](CSSC[C@H](NC(=O)[C@@H](N)CC(=O)O)C(=O)N[C@@H](CC(C)C)C(=O)NCC(=O)N[C@@H](C)C(=O)N[C@@H](Cc4ccccc4)C(=O)N[C@@H](CCCNC(=N)N)C(=O)N[C@@H](CCCCN)C(=O)N2)NC(=O)[C@H](CSSC[C@@H](C(=O)N[C@@H](CCCCN)C(=O)N[C@@H](Cc2ccc(O)cc2)C(=O)N[C@H](C(=O)N[C@@H](Cc2ccccc2)C(=O)O)C(C)C)NC(=O)[C@H](Cc2c[nH]c4ccccc24)NC(=O)[C@H](CCCNC(=N)N)NC(=O)[C@H](Cc2c[nH]cn2)NC(=O)[C@H]([C@@H](C)O)NC(=O)[C@H](CCCNC(=N)N)NC(=O)[C@H](CO)NC3=O)NC(=O)[C@H](CCCCN)NC(=O)[C@H](CC(=O)O)NC1=O` [compound 842], the results for the IC50 at hNav1.7, at hNav1.5 and on hNav1.3 were over 5 µM, over 5 µM and 3 µM, respectively.

For `CC[C@H](C)[C@@H]1NC(=O)[C@@H]2CSSC[C@@H]3NC(=O)[C@H](C(C)C)NC(=O)[C@H](CC(C)C)NC(=O)[C@H](CC(N)=O)NC(=O)[C@@H]4CCCN4C(=O)[C@H](CCCNC(=N)N)NC(=O)[C@H](CSSC[C@H](NC(=O)[C@@H](N)CC(=O)O)C(=O)N[C@@H](CC(C)C)C(=O)NCC(=O)N[C@@H](C)C(=O)N[C@@H](Cc4ccccc4)C(=O)N[C@@H](CCCNC(=N)N)C(=O)N[C@@H](CCCCN)C(=O)N2)NC(=O)[C@H](CSSC[C@@H](C(=O)N[C@@H](CCCCN)C(=O)N[C@@H](Cc2ccc(O)cc2)C(=O)N[C@H](C(=O)N[C@@H](Cc2ccccc2)C(=O)O)C(C)C)NC(=O)[C@H](Cc2c[nH]c4ccccc24)NC(=O)[C@H](CCCNC(=N)N)NC(=O)[C@H](Cc2c[nH]cn2)NC(=O)[C@H]([C@@H](C)O)NC(=O)[C@H](CCCNC(=N)N)NC(=O)[C@H](CO)NC3=O)NC(=O)[C@H](CCCCN)NC(=O)[C@H](CC(=O)O)NC(=O)[C@H](CCCCN)NC(=O)[C@H](CC(=O)O)NC(=O)[C@@H]2CCCN2C1=O` [compound 843], the IC50 on hNav1.7 was determined as 3.6 µM; on hNav1.5, 2.8 µM; at hNav1.3 it was 0.3 µM.

As for `CC[C@H](C)[C@@H]1NC(=O)[C@@H]2CSSC[C@@H]3NC(=O)[C@H](C(C)C)NC(=O)[C@H](CC(C)C)NC(=O)[C@H](CC(N)=O)NC(=O)[C@@H]4CCCN4C(=O)[C@H](CCCNC(=N)N)NC(=O)[C@H](CSSC[C@H](NC(=O)[C@@H](N)CC(=O)O)C(=O)N[C@@H](CC(C)C)C(=O)NCC(=O)N[C@@H](C)C(=O)N[C@@H](Cc4ccccc4)C(=O)N[C@@H](CCCNC(=N)N)C(=O)N[C@@H](CCCCN)C(=O)N2)NC(=O)[C@H](CSSC[C@@H](C(=O)N[C@@H](CCCCN)C(=O)N[C@@H](Cc2ccc(O)cc2)C(=O)N[C@H](C(=O)N[C@@H](Cc2ccccc2)C(=O)O)C(C)C)NC(=O)[C@H](Cc2c[nH]c4ccccc24)NC(=O)[C@H](CCCNC(=N)N)NC(=O)[C@H](Cc2c[nH]cn2)NC(=O)[C@H]([C@@H](C)O)NC(=O)[C@H](CCCNC(=N)N)NC(=O)[C@H](CO)NC3=O)NC(=O)[C@H](CCCCN)NC(=O)[C@H](CC(=O)O)NC(=O)[C@H](CC(C)C)NC(=O)[C@H](CC(=O)O)NC(=O)[C@@H]2CCCN2C1=O` [compound 844], the IC50 on hNav1.7 was 4.5 µM; on hNav1.5, over 5 µM; on hNav1.3, 4.5 µM.

Take `CC[C@H](C)[C@@H]1NC(=O)[C@@H]2CSSC[C@@H]3NC(=O)[C@H](C(C)C)NC(=O)[C@H](CC(C)C)NC(=O)[C@H](CC(N)=O)NC(=O)[C@@H]4CCCN4C(=O)[C@H](CCCNC(=N)N)NC(=O)[C@H](CSSC[C@H](NC(=O)[C@@H](N)CC(=O)O)C(=O)N[C@@H](CC(C)C)C(=O)NCC(=O)N[C@@H](C)C(=O)N[C@@H](Cc4ccccc4)C(=O)N[C@@H](CCCNC(=N)N)C(=O)N[C@@H](CCCCN)C(=O)N2)NC(=O)[C@H](CSSC[C@@H](C(=O)N[C@@H](CCCCN)C(=O)N[C@@H](Cc2ccc(O)cc2)C(=O)N[C@H](C(=O)N[C@@H](Cc2ccccc2)C(=O)O)C(C)C)NC(=O)[C@H](Cc2c[nH]c4ccccc24)NC(=O)[C@H](CCCNC(=N)N)NC(=O)[C@H](Cc2c[nH]cn2)NC(=O)[C@H]([C@@H](C)O)NC(=O)[C@H](CCCNC(=N)N)NC(=O)[C@H](CO)NC3=O)NC(=O)[C@H](CCCCN)NC(=O)[C@H](CC(=O)O)NC(=O)[C@H](CCSC)NC(=O)[C@H](CC(=O)O)NC(=O)[C@@H]2CCCN2C1=O` [compound 845]: the IC50 is 4.7 µM at hNav1.7, over 5 µM at hNav1.5 and 0.8 µM at hNav1.3.

On to `CC[C@H](C)[C@@H]1NC(=O)[C@@H]2CSSC[C@@H]3NC(=O)[C@H](C(C)C)NC(=O)[C@H](CC(C)C)NC(=O)[C@H](CC(N)=O)NC(=O)[C@@H]4CCCN4C(=O)[C@H](CCCNC(=N)N)NC(=O)[C@H](CSSC[C@H](NC(=O)[C@@H](N)CC(=O)O)C(=O)N[C@@H](CC(C)C)C(=O)NCC(=O)N[C@@H](C)C(=O)N[C@@H](Cc4ccccc4)C(=O)N[C@@H](CCCNC(=N)N)C(=O)N[C@@H](CCCCN)C(=O)N2)NC(=O)[C@H](CSSC[C@@H](C(=O)N[C@@H](CCCCN)C(=O)N[C@@H](Cc2ccc(O)cc2)C(=O)N[C@H](C(=O)N[C@@H](Cc2ccccc2)C(=O)O)C(C)C)NC(=O)[C@H](Cc2c[nH]c4ccccc24)NC(=O)[C@H](CCCNC(=N)N)NC(=O)[C@H](Cc2c[nH]cn2)NC(=O)[C@H]([C@@H](C)O)NC(=O)[C@H](CCCNC(=N)N)NC(=O)[C@H](CO)NC3=O)NC(=O)[C@H](CCCCN)NC(=O)[C@H](CC(=O)O)NC(=O)[C@@H]2CCCN2C(=O)[C@H](CC(=O)O)NC(=O)[C@@H]2CCCN2C1=O` [compound 846], for which the figures for the IC50 on hNav1.7, at hNav1.5 and at hNav1.3 were 2.9 µM, over 5 µM and 2.9 µM, respectively.

Consider `CC[C@H](C)[C@@H]1NC(=O)[C@@H]2CSSC[C@@H]3NC(=O)[C@H](C(C)C)NC(=O)[C@H](CC(C)C)NC(=O)[C@H](CC(N)=O)NC(=O)[C@@H]4CCCN4C(=O)[C@H](CCCNC(=N)N)NC(=O)[C@H](CSSC[C@H](NC(=O)[C@@H](N)CC(=O)O)C(=O)N[C@@H](CC(C)C)C(=O)NCC(=O)N[C@@H](C)C(=O)N[C@@H](Cc4ccccc4)C(=O)N[C@@H](CCCNC(=N)N)C(=O)N[C@@H](CCCCN)C(=O)N2)NC(=O)[C@H](CSSC[C@@H](C(=O)N[C@@H](CCCCN)C(=O)N[C@@H](Cc2ccc(O)cc2)C(=O)N[C@H](C(=O)N[C@@H](Cc2ccccc2)C(=O)O)C(C)C)NC(=O)[C@H](Cc2c[nH]c4ccccc24)NC(=O)[C@H](CCCNC(=N)N)NC(=O)[C@H](Cc2c[nH]cn2)NC(=O)[C@H]([C@@H](C)O)NC(=O)[C@H](CCCNC(=N)N)NC(=O)[C@H](CO)NC3=O)NC(=O)[C@H](CCCCN)NC(=O)[C@H](CC(=O)O)NC(=O)[C@H](CCC(N)=O)NC(=O)[C@H](CC(=O)O)NC(=O)[C@@H]2CCCN2C1=O` [compound 847], for which the figures for the IC50 on hNav1.7, at hNav1.5 and on hNav1.3 were over 5 µM, over 5 µM and 1.7 µM, respectively.
